Values after ≈ are worked out from the molar mass of the structure shown.
What was measured:
Assay in all cases: MIC, broth microdilution
S. epidermidis GC 4935 = details: Staphylococcus epidermidis
E. coli GC 2272 = details: Escherichia coli
S. aureus GC 1079 = details: Staphylococcus aureus
P. aeruginosa GC 2214 = details: Pseudomonas aeruginosa
E. coli GC 2233 = details: Escherichia coli
c. albicans GC 3066 = test system: c. albicans GC 3066
E. coli GC 2271 = details: Escherichia coli
E. coli GC 2270 = details: Escherichia coli
Method: Antimicrobial susceptibility testing. The in vitro activities of the antibiotics are determined by the broth microdilution method as recommended by the National Committee for Clinical Laboratory Standards (NCCLS) (1). Mueller-Hinton II broth (MHBII)(BBL Cockeysville, Md.) is the medium employed in the testing procedures. Microtiter plates containing serial dilutions of each antimicrobial agent are inoculated with each organism to yield the appropriate density (10^5 CFU/ml) in a 100 μl final volume. The plates are incubated for 18-22 hours at 35° C. in ambient air.
Representative compounds were first incubated in mouse serum for an hour prior to the in vitro testing against a panel of selected gram-positive and gram-negative bacteria strains. All compounds were also pre-incubated in water for an hour prior to testing as control. Representative compounds of Formula I were incubated in human serum prior to MIC determination.

E. faecalis GC 2265 = details: Enterococcus faecalis
E. coli GC 3226 = details: Escherichia coli
E. faecalis GC 2267 = details: Enterococcus faecalis
E. faecium GC 2243 = details: Enterococcus faecium
S. aureus GC 6469 = details: Staphylococcus aureus
S. aureus GC 1131 = details: Staphylococcus aureus
E. coli GC 1073 = details: Escherichia coli
S. aureus GC 6335 = details: Staphylococcus aureus
E. coli GC 2203 = details: Escherichia coli
E. coli GC 4560 = details: Escherichia coli
E. coli GC 6465 = details: Escherichia coli
S. aureus GC 6467 = details: Staphylococcus aureus

CCCCC(=O)OCOC(=O)N(CC(=O)Nc1cc(N(C)C)c2c(c1O)C(=O)C1=C(O)[C@]3(O)C(=O)C(C(N)=O)=C(O)[C@@H](N(C)C)[C@@H]3C[C@@H]1C2)C(C)(C)C [Example 61, ({[(2-{[(5aR,6aS,7S,10aS)-9-(aminocarbonyl)-4,7-bis(dimethylamino)-1,8,10a,11-tetrahydroxy-10,12-dioxo-5,5a,6,6a,7,10,10a,12-octahydrotetracen-2-yl]amino}-2-oxoethyl)(tert-butyl)amino]carbonyl}oxy)methyl pentanoate]
MIC (S. epidermidis GC 4935; GC4935, pre-incubation in human serum): 1 µg/mL (≈ 1.34 µM) | MIC (S. epidermidis GC 4935; GC4935, pre-incubation in mouse serum): 0.5 µg/mL (≈ 0.672 µM) | MIC (S. epidermidis GC 4935; GC4935, pre-incubation in water): 1 µg/mL (≈ 1.34 µM) | MIC (E. coli GC 2272; GC2272, pre-incubation in human serum): 4 µg/mL (≈ 5.38 µM) | MIC (E. coli GC 2272; GC2272, pre-incubation in mouse serum): 0.5 µg/mL (≈ 0.672 µM) | MIC (E. coli GC 2272; GC2272, pre-incubation in water): 8 µg/mL (≈ 10.8 µM) | MIC (S. aureus GC 1079; GC1079, pre-incubation in human serum): 0.5 µg/mL (≈ 0.672 µM) | MIC (S. aureus GC 1079; GC1079, pre-incubation in mouse serum): 0.25 µg/mL (≈ 0.336 µM) | MIC (S. aureus GC 1079; GC1079, pre-incubation in water): 1 µg/mL (≈ 1.34 µM) | MIC (P. aeruginosa GC 2214; GC2214, pre-incubation in human serum): > 64 µg/mL | MIC (P. aeruginosa GC 2214; GC2214, pre-incubation in mouse serum): 8 µg/mL (≈ 10.8 µM) | MIC (P. aeruginosa GC 2214; GC2214, pre-incubation in water): > 64 µg/mL | MIC (E. coli GC 2233; GC2233, pre-incubation in human serum): 8 µg/mL (≈ 10.8 µM) | MIC (E. coli GC 2233; GC2233, pre-incubation in mouse serum): 1 µg/mL (≈ 1.34 µM) | MIC (E. coli GC 2233; GC2233, pre-incubation in water): 16 µg/mL (≈ 21.5 µM) | MIC (c. albicans GC 3066; Candida albicans, GC3066): > 64 µg/mL | MIC (c. albicans GC 3066; pre-incubation in human serum): >64 UG/ML | MIC (c. albicans GC 3066; pre-incubation in mouse serum): >64 UG/ML | MIC (E. coli GC 2271; GC2271, pre-incubation in human serum): 4 µg/mL (≈ 5.38 µM) | MIC (E. coli GC 2271; GC2271, pre-incubation in mouse serum): 0.5 µg/mL (≈ 0.672 µM) | MIC (E. coli GC 2271; GC2271, pre-incubation in water): 16 µg/mL (≈ 21.5 µM) | MIC (E. coli GC 2270; GC2270, pre-incubation in human serum): 4 µg/mL (≈ 5.38 µM) | MIC (E. coli GC 2270; GC2270, pre-incubation in mouse serum): 0.5 µg/mL (≈ 0.672 µM) | MIC (E. coli GC 2270; GC2270, pre-incubation in water): 16 µg/mL (≈ 21.5 µM) | MIC (E. faecalis GC 2265; GC2265, pre-incubation in human serum): 2 µg/mL (≈ 2.69 µM) | MIC (E. faecalis GC 2265; GC2265, pre-incubation in mouse serum): 0.5 µg/mL (≈ 0.672 µM) | MIC (E. faecalis GC 2265; GC2265, pre-incubation in water): 2 µg/mL (≈ 2.69 µM) | MIC (E. coli GC 3226; GC3226, pre-incubation in human serum): 8 µg/mL (≈ 10.8 µM) | MIC (E. coli GC 3226; GC3226, pre-incubation in mouse serum): 0.5 µg/mL (≈ 0.672 µM) | MIC (E. coli GC 3226; GC3226, pre-incubation in water): 32 µg/mL (≈ 43 µM) | MIC (E. faecalis GC 2267; GC2267, pre-incubation in human serum): 2 µg/mL (≈ 2.69 µM) | MIC (E. faecalis GC 2267; GC2267, pre-incubation in mouse serum): 0.5 µg/mL (≈ 0.672 µM) | MIC (E. faecalis GC 2267; GC2267, pre-incubation in water): 2 µg/mL (≈ 2.69 µM) | MIC (E. faecium GC 2243; GC2243, pre-incubation in human serum): 1 µg/mL (≈ 1.34 µM) | MIC (E. faecium GC 2243; GC2243, pre-incubation in mouse serum): 0.25 µg/mL (≈ 0.336 µM) | MIC (E. faecium GC 2243; GC2243, pre-incubation in water): 0.5 µg/mL (≈ 0.672 µM) | MIC (S. aureus GC 6469; GC6469, pre-incubation in human serum): 0.5 µg/mL (≈ 0.672 µM) | MIC (S. aureus GC 6469; GC6469, pre-incubation in mouse serum): 0.5 µg/mL (≈ 0.672 µM) | MIC (S. aureus GC 6469; GC6469, pre-incubation in water): 2 µg/mL (≈ 2.69 µM) | MIC (S. aureus GC 1131; GC1131, pre-incubation in human serum): 0.5 µg/mL (≈ 0.672 µM) | MIC (S. aureus GC 1131; GC1131, pre-incubation in mouse serum): 0.5 µg/mL (≈ 0.672 µM) | MIC (S. aureus GC 1131; GC1131, pre-incubation in water): 0.5 µg/mL (≈ 0.672 µM) | MIC (E. coli GC 1073; GC1073, pre-incubation in human serum): 8 µg/mL (≈ 10.8 µM) | MIC (E. coli GC 1073; GC1073, pre-incubation in mouse serum): 0.5 µg/mL (≈ 0.672 µM) | MIC (E. coli GC 1073; GC1073, pre-incubation in water): 32 µg/mL (≈ 43 µM) | MIC (S. aureus GC 6335; GC6335, pre-incubation in human serum): 1 µg/mL (≈ 1.34 µM) | MIC (S. aureus GC 6335; GC6335, pre-incubation in mouse serum): 0.5 µg/mL (≈ 0.672 µM) | MIC (S. aureus GC 6335; GC6335, pre-incubation in water): 1 µg/mL (≈ 1.34 µM) | MIC (E. coli GC 2203; GC2203, pre-incubation in human serum): 8 µg/mL (≈ 10.8 µM) | MIC (E. coli GC 2203; GC2203, pre-incubation in mouse serum): 0.5 µg/mL (≈ 0.672 µM) | MIC (E. coli GC 2203; GC2203, pre-incubation in water): 32 µg/mL (≈ 43 µM) | MIC (E. coli GC 4560; GC4560, pre-incubation in human serum): 1 µg/mL (≈ 1.34 µM) | MIC (E. coli GC 4560; GC4560, pre-incubation in mouse serum): 0.25 µg/mL (≈ 0.336 µM) | MIC (E. coli GC 4560; GC4560, pre-incubation in water): 1 µg/mL (≈ 1.34 µM) | MIC (E. coli GC 6465; GC6465, pre-incubation in human serum): 32 µg/mL (≈ 43 µM) | MIC (E. coli GC 6465; GC6465, pre-incubation in mouse serum): 1 µg/mL (≈ 1.34 µM) | MIC (E. coli GC 6465; GC6465, pre-incubation in water): > 64 µg/mL | MIC (S. aureus GC 6467; GC6467, pre-incubation in human serum): 0.5 µg/mL (≈ 0.672 µM) | MIC (S. aureus GC 6467; GC6467, pre-incubation in mouse serum): 0.5 µg/mL (≈ 0.672 µM) | MIC (S. aureus GC 6467; GC6467, pre-incubation in water): 1 µg/mL (≈ 1.34 µM)

Reference: US20070049564A1 (Wyeth, priority 2005, published 2007)
